Source: publication PMC12090182, “Repurposing of the RIPK1-Selective Benzo[1,4]oxazepin-4-one Scaffold for the Development of a Type III LIMK1/2 Inhibitor” (ACS Chemical Biology, 2025)

Key:
Assay type in all cases: cell-based
Settings in all cases: HEK-293T; 1 μM inhibitor, HEK293T cells
PHKG2 = PHKG2 (Homo sapiens, UniProt P15735)
Outline: (§1)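 Using transiently transfected HEK293T cells, the inhibitor (1 μM) is tested for displacing Tracer K10 from each expressed kinase after 20 h expression. Luminescence at donor and acceptor wavelengths yields occupancy.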

DYRK1B = DYRK1B (Homo sapiens, UniProt Q9Y463)
Outline: as §1

MET = MET (Homo sapiens, UniProt P08581)
Outline: as §1

CDK18 = CDK18 (Homo sapiens, UniProt Q07002)
Outline: as §1

STK3 = STK3 (Homo sapiens, UniProt Q13188)
Outline: as §1

IGF1R = IGF1R (Homo sapiens, UniProt P08069)
Outline: as §1

SNRK = SNRK (Homo sapiens, UniProt Q9NRH2)
Outline: as §1

TLK1 = TLK1 (Homo sapiens, UniProt Q9UKI8)
Outline: as §1

STK38 = STK38 (Homo sapiens, UniProt Q15208)
Outline: as §1

RIPK1 = molecular target: T1, RIPK1 (Homo sapiens, UniProt Q13546)
T1 construct: full-length LIMK1/2, RIPK1, BTK, and LRRK2 cloned in a frame in a NanoLuc-vector (Promega); host or cells: HEK293T
T1 sequence (Q13546 1-671): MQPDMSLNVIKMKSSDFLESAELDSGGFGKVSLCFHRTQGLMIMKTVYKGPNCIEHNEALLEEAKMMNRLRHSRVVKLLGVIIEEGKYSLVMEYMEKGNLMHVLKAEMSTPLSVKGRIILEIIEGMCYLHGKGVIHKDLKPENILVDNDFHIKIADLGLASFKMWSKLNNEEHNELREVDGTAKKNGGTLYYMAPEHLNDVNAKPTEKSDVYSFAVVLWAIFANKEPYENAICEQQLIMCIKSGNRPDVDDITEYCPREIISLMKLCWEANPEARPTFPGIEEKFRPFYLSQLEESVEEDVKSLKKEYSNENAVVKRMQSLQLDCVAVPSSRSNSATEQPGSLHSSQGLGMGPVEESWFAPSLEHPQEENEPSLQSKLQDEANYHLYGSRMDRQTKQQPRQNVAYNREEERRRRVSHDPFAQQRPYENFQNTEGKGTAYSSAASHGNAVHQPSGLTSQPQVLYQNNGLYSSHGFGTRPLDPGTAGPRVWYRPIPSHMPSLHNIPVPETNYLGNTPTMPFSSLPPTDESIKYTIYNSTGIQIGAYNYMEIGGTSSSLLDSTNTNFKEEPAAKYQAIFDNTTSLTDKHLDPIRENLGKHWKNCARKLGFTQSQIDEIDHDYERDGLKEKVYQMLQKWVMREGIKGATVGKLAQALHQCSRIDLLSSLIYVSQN
Outline: as §1

MAP4K3 = MAP4K3 (Homo sapiens, UniProt Q8IVH8)
Outline: as §1

PRKACA = PRKACA (Homo sapiens, UniProt P17612)
Outline: as §1

FES = FES (Homo sapiens, UniProt P07332)
Outline: as §1

EPHB1 = EPHB1 (Homo sapiens, UniProt P54762)
Outline: as §1

NEK2 = NEK2 (Homo sapiens, UniProt P51955)
Outline: as §1

CSNK2A2 = CSNK2A2 (Homo sapiens, UniProt P19784)
Outline: as §1

CDK2 = CDK2 (Homo sapiens, UniProt P24941)
Outline: as §1

NUAK1 = NUAK1 (Homo sapiens, UniProt O60285)
Outline: as §1

CAMK2D = CAMK2D (Homo sapiens, UniProt Q13557)
Outline: as §1

JAK3 = JAK3 (Homo sapiens, UniProt P52333)
Outline: as §1

MARK2 = MARK2 (Homo sapiens, UniProt Q7KZI7)
Outline: as §1

PRKCE = PRKCE (Homo sapiens, UniProt Q02156)
Outline: as §1

FER = FER (Homo sapiens, UniProt P16591)
Outline: as §1

AURKC = AURKC (Homo sapiens, UniProt Q9UQB9)
Outline: as §1

CDK4 = CDK4 (Homo sapiens, UniProt P11802)
Outline: as §1

MARK4 = MARK4 (Homo sapiens, UniProt Q96L34)
Outline: as §1

MUSK = MUSK (Homo sapiens, UniProt O15146)
Outline: as §1

Sequence of CAMK2D (Q13557 whole entry): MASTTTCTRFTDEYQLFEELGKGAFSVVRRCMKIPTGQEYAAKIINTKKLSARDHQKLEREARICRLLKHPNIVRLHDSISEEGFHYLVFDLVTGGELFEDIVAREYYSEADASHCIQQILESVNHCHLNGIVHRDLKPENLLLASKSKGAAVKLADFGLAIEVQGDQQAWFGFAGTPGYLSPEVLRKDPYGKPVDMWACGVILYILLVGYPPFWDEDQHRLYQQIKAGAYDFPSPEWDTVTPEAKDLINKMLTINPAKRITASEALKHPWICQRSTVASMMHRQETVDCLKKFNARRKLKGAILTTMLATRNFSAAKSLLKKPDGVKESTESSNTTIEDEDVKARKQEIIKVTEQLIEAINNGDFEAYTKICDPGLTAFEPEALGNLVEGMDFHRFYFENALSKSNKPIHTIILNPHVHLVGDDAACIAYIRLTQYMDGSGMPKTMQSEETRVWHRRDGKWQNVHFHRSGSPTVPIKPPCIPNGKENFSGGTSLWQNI
Sequence of DYRK1B (Q9Y463 whole entry): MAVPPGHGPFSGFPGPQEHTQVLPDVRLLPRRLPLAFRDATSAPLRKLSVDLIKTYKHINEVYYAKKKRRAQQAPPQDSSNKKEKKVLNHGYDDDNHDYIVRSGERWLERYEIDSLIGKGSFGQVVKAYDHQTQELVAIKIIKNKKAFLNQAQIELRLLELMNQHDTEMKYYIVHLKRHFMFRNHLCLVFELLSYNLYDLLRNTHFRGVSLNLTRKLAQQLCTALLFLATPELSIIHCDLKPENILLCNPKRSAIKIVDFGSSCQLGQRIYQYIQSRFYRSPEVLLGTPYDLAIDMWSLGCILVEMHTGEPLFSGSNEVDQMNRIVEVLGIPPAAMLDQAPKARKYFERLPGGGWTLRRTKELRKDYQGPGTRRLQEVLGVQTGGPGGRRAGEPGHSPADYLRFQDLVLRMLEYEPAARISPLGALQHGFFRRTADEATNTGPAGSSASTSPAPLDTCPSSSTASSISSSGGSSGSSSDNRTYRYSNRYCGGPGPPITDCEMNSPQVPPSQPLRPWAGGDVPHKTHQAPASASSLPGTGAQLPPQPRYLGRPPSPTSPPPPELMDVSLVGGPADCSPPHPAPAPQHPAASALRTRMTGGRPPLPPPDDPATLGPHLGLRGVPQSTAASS
Sequence of CDK18 (Q07002 whole entry): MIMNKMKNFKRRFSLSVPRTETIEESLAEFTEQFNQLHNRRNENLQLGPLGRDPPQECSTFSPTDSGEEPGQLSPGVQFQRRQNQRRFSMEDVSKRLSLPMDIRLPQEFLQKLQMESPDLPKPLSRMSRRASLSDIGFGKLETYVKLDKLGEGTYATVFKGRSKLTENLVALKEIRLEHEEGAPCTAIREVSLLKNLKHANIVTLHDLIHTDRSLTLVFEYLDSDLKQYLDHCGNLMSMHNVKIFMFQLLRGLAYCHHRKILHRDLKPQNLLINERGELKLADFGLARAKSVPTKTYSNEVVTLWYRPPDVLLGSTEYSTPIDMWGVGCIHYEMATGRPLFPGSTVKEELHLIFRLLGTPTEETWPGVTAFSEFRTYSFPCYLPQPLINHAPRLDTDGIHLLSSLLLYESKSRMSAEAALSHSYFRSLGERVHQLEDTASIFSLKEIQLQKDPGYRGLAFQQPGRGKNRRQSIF
Sequence of CDK18 (Q8ND76 whole entry, further chain): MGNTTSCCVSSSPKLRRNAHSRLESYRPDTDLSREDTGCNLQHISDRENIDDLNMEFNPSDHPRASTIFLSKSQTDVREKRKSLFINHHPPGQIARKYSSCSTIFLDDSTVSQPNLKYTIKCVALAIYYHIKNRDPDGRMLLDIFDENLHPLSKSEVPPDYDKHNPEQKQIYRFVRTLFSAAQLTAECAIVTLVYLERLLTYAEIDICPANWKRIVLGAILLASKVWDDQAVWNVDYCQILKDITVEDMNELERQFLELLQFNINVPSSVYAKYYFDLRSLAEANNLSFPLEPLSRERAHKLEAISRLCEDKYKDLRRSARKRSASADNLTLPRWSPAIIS
Sequence of NUAK1 (O60285 whole entry): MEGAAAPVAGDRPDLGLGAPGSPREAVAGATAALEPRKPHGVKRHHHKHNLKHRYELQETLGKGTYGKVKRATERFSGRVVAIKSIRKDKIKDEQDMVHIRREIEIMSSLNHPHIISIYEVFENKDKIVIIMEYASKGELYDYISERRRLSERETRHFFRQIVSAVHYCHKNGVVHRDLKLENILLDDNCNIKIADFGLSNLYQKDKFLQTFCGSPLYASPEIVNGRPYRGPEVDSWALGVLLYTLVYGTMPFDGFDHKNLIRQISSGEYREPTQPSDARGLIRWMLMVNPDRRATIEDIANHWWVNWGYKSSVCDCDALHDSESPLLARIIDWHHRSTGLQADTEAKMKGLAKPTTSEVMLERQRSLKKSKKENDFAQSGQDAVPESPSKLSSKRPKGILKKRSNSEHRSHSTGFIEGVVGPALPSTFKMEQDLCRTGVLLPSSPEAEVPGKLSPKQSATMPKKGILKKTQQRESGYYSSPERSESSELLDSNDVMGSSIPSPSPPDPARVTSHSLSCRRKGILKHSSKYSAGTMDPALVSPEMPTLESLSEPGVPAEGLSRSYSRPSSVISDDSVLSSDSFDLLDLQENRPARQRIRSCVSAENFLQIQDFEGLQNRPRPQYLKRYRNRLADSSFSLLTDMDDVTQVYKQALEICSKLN
Sequence of STK3 (Q13188 whole entry): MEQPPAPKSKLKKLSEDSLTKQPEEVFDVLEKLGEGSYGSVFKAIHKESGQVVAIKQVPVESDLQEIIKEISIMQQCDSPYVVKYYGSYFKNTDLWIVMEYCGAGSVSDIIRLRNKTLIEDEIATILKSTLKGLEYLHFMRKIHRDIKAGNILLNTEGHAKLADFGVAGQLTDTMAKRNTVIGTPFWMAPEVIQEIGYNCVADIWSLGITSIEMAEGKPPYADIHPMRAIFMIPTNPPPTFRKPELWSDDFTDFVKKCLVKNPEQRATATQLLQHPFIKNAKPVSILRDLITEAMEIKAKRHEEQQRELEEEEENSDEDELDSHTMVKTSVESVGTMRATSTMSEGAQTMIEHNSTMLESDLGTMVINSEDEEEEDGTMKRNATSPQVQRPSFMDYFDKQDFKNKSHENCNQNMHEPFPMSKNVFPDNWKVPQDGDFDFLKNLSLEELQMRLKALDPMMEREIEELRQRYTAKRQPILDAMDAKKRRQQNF
Sequence of JAK3 (P52333 whole entry): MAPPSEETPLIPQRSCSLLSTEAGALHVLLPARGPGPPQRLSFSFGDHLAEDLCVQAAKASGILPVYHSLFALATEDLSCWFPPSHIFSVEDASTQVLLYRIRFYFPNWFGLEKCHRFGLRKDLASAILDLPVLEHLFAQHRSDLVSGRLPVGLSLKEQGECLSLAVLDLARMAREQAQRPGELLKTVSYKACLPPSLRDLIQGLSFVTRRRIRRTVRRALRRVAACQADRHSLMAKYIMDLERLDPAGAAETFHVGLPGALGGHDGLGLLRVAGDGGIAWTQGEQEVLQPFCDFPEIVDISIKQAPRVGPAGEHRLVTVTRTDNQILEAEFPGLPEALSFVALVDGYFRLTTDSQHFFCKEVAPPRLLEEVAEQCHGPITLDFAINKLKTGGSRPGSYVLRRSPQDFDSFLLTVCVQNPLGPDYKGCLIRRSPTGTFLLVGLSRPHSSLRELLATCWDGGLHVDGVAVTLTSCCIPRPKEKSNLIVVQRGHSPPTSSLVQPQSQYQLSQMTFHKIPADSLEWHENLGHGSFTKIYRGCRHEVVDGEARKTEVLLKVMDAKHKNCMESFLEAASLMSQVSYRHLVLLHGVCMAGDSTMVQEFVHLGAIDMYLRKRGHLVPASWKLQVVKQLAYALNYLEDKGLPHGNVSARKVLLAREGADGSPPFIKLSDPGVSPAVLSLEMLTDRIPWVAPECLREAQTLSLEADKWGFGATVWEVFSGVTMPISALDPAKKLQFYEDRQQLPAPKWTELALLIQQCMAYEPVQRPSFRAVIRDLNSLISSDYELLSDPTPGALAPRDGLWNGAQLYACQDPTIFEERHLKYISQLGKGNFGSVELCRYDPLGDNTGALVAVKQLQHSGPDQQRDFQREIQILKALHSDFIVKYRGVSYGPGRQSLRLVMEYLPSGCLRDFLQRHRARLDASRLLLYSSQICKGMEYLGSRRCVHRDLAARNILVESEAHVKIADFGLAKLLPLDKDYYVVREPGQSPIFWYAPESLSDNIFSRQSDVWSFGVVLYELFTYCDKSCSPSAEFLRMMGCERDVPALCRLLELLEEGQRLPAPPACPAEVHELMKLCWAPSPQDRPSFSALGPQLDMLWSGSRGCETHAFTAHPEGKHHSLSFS
Sequence of NEK2 (P51955 whole entry): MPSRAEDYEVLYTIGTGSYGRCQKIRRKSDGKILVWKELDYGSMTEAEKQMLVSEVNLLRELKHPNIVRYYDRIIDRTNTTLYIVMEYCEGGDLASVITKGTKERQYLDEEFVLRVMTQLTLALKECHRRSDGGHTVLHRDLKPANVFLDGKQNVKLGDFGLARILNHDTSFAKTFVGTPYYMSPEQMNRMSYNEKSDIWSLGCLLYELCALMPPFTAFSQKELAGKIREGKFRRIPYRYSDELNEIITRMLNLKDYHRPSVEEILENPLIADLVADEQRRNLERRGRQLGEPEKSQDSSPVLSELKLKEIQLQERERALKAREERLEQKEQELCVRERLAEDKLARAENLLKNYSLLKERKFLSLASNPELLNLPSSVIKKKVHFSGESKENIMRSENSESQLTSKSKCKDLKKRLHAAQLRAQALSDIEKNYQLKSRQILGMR
Sequence of AURKC (Q9UQB9 whole entry): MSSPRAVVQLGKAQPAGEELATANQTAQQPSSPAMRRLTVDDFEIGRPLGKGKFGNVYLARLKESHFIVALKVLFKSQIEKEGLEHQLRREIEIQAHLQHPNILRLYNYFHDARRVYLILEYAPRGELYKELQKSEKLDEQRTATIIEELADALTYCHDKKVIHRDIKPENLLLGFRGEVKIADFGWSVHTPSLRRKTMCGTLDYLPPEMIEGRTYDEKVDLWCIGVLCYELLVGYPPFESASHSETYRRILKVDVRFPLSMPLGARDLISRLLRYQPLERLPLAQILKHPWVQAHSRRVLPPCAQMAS

In the case of `CN1C(=O)[C@@H](N2CCc3c(nn(Cc4ccccc4)c3C(N)=O)C2=O)COc2cc(Cl)ccc21` [Compound 10, (S)-2-benzyl-6-(8-chloro-5-methyl-4-oxo-2,3,4,5-tetrahydrobenzo[b][1,4]oxazepin-3-yl)-7-oxo-4,5,6,7-tetrahydro-2H-pyrazolo[3,4-c]pyridine-3-carboxamide], the receptor occupancy at 1 µM (PHKG2) is reported as -1.01%, the receptor occupancy at 1 µM (DYRK1B) is reported as -4.33% and the receptor occupancy at 1 µM (MET) is reported as 4.93%. For the same molecule, the receptor occupancy at 1 µM (CDK18) was -5.62%, the receptor occupancy at 1 µM (STK3) was -10.1% and the receptor occupancy at 1 µM (IGF1R) was -7.01%. The receptor occupancy at 1 µM (SNRK) was 7.74%, the receptor occupancy at 1 µM (TLK1) was 26.6% and the receptor occupancy at 1 µM (STK38) was 4.93%. For the same molecule, the receptor occupancy at 1 µM (RIPK1) was 78.4%, the receptor occupancy at 1 µM (MAP4K3) was -3.75% and the receptor occupancy at 1 µM (PRKACA) was -2.16%. For the same molecule, the receptor occupancy at 1 µM (FES) was 3.15%, the receptor occupancy at 1 µM (EPHB1) was 0.755% and the receptor occupancy at 1 µM (NEK2) was -8.89%. The receptor occupancy at 1 µM (CSNK2A2) was 1.08%, the receptor occupancy at 1 µM (CDK2) was 6.33% and the receptor occupancy at 1 µM (NUAK1) was -4.45%. It also gave a receptor occupancy at 1 µM (CAMK2D) of 5.75%, a receptor occupancy at 1 µM (JAK3) of 4.78% and a receptor occupancy at 1 µM (MARK2) of 16.3%. The receptor occupancy at 1 µM (PRKCE) was 3.9%, the receptor occupancy at 1 µM (FER) was 15.8% and the receptor occupancy at 1 µM (AURKC) was 5.08%. For the same molecule, the receptor occupancy at 1 µM (CDK4) was -9.98%, the receptor occupancy at 1 µM (MARK4) was 8.31% and the receptor occupancy at 1 µM (MUSK) was -11.5%.
